{"source": "paper PMC3621575", "about": "(ACS Chemical Biology, 2012)", "key": {"T. brucei CRK1": {"molecular_target": "T1, T. brucei CRK1 (Trypanosoma brucei brucei, UniProt P38973)", "T1 sequence (P38973 1-301)": "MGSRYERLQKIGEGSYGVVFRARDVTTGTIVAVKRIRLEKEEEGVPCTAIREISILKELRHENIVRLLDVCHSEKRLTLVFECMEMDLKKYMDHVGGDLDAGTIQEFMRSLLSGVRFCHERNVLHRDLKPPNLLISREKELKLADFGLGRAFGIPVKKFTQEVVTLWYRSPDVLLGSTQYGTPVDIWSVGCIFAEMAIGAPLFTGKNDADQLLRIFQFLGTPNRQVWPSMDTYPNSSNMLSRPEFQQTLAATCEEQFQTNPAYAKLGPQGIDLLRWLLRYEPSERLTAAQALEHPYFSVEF", "test": "Kinobead profiling, T. brucei lysate, CRK1", "type": "binding", "details": "T. brucei cell lysate"}, "[1]": {"test_system": "human kinome in primary chronic lymphocytic leukemia cells", "details": "cited from earlier work"}, "CDK9": {"test_system": "CDK9", "details": "primary chronic lymphocytic leukemia cells; cited from earlier work"}, "CRK7": {"test_system": "CRK7", "details": "primary chronic lymphocytic leukemia cells; cited from earlier work"}, "PCSTAIRE2": {"test_system": "PCSTAIRE2", "details": "primary chronic lymphocytic leukemia cells; cited from earlier work"}}, "data": [{"smiles": "CC(C)(C)c1cnc(CSc2cnc(NC(=O)C3CCNCC3)s2)o1", "note": "[BMS-387032]", "values": [{"measurement": "kinobead inhibition of CRK1", "setting": "T. brucei CRK1", "result": "no inhibition"}, {"measurement": "observed CDKs inhibited", "setting": "[1]", "result": "all of the seven"}, {"measurement": "kinobead IC50, CDK9", "setting": "CDK9", "result": "submicromolar"}, {"measurement": "kinobead IC50, CRK7", "setting": "CRK7", "result": "submicromolar"}, {"measurement": "kinobead IC50, PCSTAIRE2", "setting": "PCSTAIRE2", "result": "submicromolar"}]}]}
